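In this assay, cells in 96-well plates receive the compound at five concentrations for 48 hours. Endpoints are linearly interpolated between the surrounding concentrations. At the GI50, growth is halved.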 Activity calls are given as the source filed them. Cut-off read from the data, not from the text of the source: active = GI50 up to about 1.1 µM and inactive = higher.

Assay in all cases: DTP human tumour cell line panel, 48 h
The subject of assay [1] is DMS-114.
Assay [2] deals with DMS-273.
Assay [3] concerns KM-20L2.
Assay [4] has as its system LXFL 529.
Assay [5] relates to HOP-18.
Assay [6] concerns SNB-78.
For assay [7], the system named is XF498.
Assay [8] concerns BT-549.
The subject of assay [9] is RXF 631.

Take `Nc1nc(CCl)nc(Nc2ccccc2)n1`: the GI50 is 18.4 µM (inactive) in [1], 4.16 µM (inactive) in [2], 18.6 µM (inactive) in [3] and 14.8 µM (inactive) in [4].
As for `C/C(CCn1[nH]c(=O)ccc1=O)=N\N=C(N)N`, the GI50 in assay [1], in assay [2], in assay [5], in assay [3], in [4] and in [6] was > 100 µM (inactive) each time. Further, the GI50 in [7] was > 100 µM (inactive).
Regarding `NC1=C(NC(=O)Cc2ccccc2F)C(=O)c2ccccc2C1=O`, the GI50 in assay [1] was 41.8 µM (inactive); in [2], 97.7 µM (inactive); in assay [5] it was > 100 µM (inactive); in assay [3], 40.7 µM (inactive).
Turning to `CC(C)[Si](OC1=C(C(=O)N(C)c2ccccc2Cl)CCCCC1)(C(C)C)C(C)C`, in assay [8], the GI50 was > 100 µM (inactive).
With `OCC(O)CNc1ccnc2cc(Cl)ccc12` (stereo not given), the GI50 in [1], in assay [5], in [3], in assay [4], in [6] and in assay [7] was > 100 µM (inactive) in each case.
For `CC(C)CCCC(C)C1CCC2C3CC([N+](=O)[O-])=C4CC(O)CCC4(C)C3CCC12C` (stereo not given), the GI50 is 22 µM (inactive) in [1]; 12.6 µM (inactive) in assay [2]; 18.5 µM (inactive) in assay [3]; 18.7 µM (inactive) in [4]; 22.3 µM (inactive) in assay [7].
As to `COc1cc(C=O)c(-c2c(C=O)ccc3c2OCO3)c(OC)c1OC`, the GI50 in assay [1] was > 100 µM (inactive); in [2], 72.6 µM (inactive); in [5], > 100 µM (inactive); in [3], > 100 µM (inactive); in [4], > 100 µM (inactive); in assay [9], > 100 µM (inactive). Moreover, in [6], the GI50 was > 100 µM (inactive).
Regarding `O=C(c1ccccc1)C(C(=O)c1ccccc1)C1(O)C(=O)c2ccccc2C1=O`, the GI50 in [1] was > 10 µM (inactive); in assay [2], 20.6 µM (inactive); in assay [5] it was 68.4 µM (inactive); in assay [3], 34.9 µM (inactive); in assay [4], 28.6 µM (inactive); in assay [6], 62.2 µM (inactive). Moreover, the GI50 in assay [7] is 84.1 µM (inactive).
Regarding `CCCCn1c2c(n(CCCC)c1=S)-c1c(n(CCCC)c(=S)n1CCCC)S[Se][Se]S2`, the GI50 in assay [8] was 4.55 µM (inactive).
On the same count and under the same terms, in the case of `CCOC(=O)/C(C#N)=C/c1ccc(SCc2ccco2)c([N+](=O)[O-])c1` it was > 100 µM (inactive).
On to `COc1ccc(/C=C/C(=O)c2sc(-n3nc(-c4ccccc4)cc3-c3ccccc3)nc2C)cc1`, for which the GI50 in [1] was 31.3 µM (inactive); in assay [2], > 10 µM (inactive); in assay [5] it was > 10 µM (inactive); in [3], 77.4 µM (inactive); in assay [4], > 10 µM (inactive); in [9], > 10 µM (inactive). Also, the GI50 is > 10 µM (inactive) in assay [6] and 33.7 µM (inactive) in assay [7].
Consider `OCc1ccc2c(c1)CC1(C2)Cc2cc3c(cc2C1)CCC3`, for which, in assay [8], the GI50 is 2.81 µM (inactive).
As for `COc1cccc(/C=C2\N=C(Cl)OC2=O)c1O`, the GI50 in assay [1], in assay [2], in [5], in assay [3], in assay [4] and in [6] was > 100 µM (inactive) throughout. For the same compound, the GI50 in assay [7] is > 100 µM (inactive).
`O=C(O/N=C1/CCC/C1=C\c1ccccc1)c1ccc(Cl)c(Cl)c1`: the GI50 in assay [1], in assay [2], in assay [5], in assay [3], in assay [4] and in assay [9] was > 100 µM (inactive) each time. In assay [6], the GI50 was > 100 µM (inactive).
On to `COc1ccccc1NC(=O)C1=C(C)NC(C)=C(C(=O)Nc2ccccc2OC)C1c1ccccc1[N+](=O)[O-]`, for which the GI50 in assay [1] is 15 µM (inactive); in assay [2], 17.9 µM (inactive); in assay [5] it was 29.7 µM (inactive); in assay [4], 11.7 µM (inactive); in [9], 19.6 µM (inactive); in assay [6], 34.2 µM (inactive). The GI50 in [7] was 22.2 µM (inactive).
As to `Nc1nc(N)c(-c2ccccc2)c(C(=O)Nc2ccccc2)n1`, the GI50 in assay [5], in assay [3], in [6] and in assay [7] was > 100 µM (inactive) in each case.
For the compound `Nc1ccc(C(=O)NN2C(=O)C(Cl)C2c2cc(Br)cc(Br)c2O)cc1` (stereo not given), the GI50 is 4.22 µM (inactive) in [1]; 6.4 µM (inactive) in [2]; 3.56 µM (inactive) in assay [5]; 33.3 µM (inactive) in assay [3]; 20.1 µM (inactive) in assay [4]; 63.8 µM (inactive) in assay [6]. Besides, the GI50 in assay [7] was 14.1 µM (inactive).
Take `O=C(NCc1cccnc1)C1COc2cc(-c3cc(=O)c4ccccc4o3)ccc2O1` (stereo not given): the GI50 was 14.1 µM (inactive) in assay [1]; > 79.4 µM (inactive) in assay [5]; > 100 µM (inactive) in assay [3]; 4.95 µM (inactive) in assay [4]; > 56.1 µM (inactive) in assay [9]; > 82.8 µM (inactive) in assay [6]. The GI50 in [7] was 24.6 µM (inactive).
Turning to `O=c1oc2ccccc2c(O)c1C(C/C(CCN1CCCC1)=N\Nc1ccccc1)c1ccccc1` (stereo not given), the GI50 is 91.8 µM (inactive) in assay [5]; > 100 µM (inactive) in assay [3]; 84.5 µM (inactive) in assay [4]; > 100 µM (inactive) in [6]; > 100 µM (inactive) in assay [7].
`O=C(Nc1ccccc1)c1cc2ccccc2c(/N=N\c2cccc([N+](=O)[O-])c2)c1O`: in [8], the GI50 was > 100 µM (inactive).
Turning to `Cc1cc(Cl)ccc1NC(=O)CC/C(CC(=O)C(C)C)=N\NC(=O)C[n+]1ccccc1`, the GI50 in [1], in assay [2], in assay [5], in assay [3], in assay [4] and in assay [9] was > 100 µM (inactive) in each case. Further, the GI50 in assay [6] and in assay [7] was > 100 µM (inactive) throughout.
With `CCN1CCC(O)(c2ccc(C)cc2)C(C(=O)c2ccc(C)cc2)C1` (stereo not given), the GI50 in assay [2] is 19.8 µM (inactive); in assay [5], 22.1 µM (inactive); in assay [3], 13 µM (inactive); in assay [4], 17.4 µM (inactive); in assay [6] it was > 51.8 µM (inactive); in [7] it was 18 µM (inactive).
For the compound `CCc1ccc(NC(=O)NC(=O)c2ccccc2[N+](=O)[O-])cc1Oc1ncc(Cl)cn1`, the concentration for 50% growth inhibition (GI50) in assay [8] is 0.0815 µM (active); in assay [1] it was 0.0174 µM (active); in [2], < 0.0149 µM (active); in [5], > 100 µM (inactive); in [3], 0.0148 µM (active); in [4], < 0.0185 µM (active). Moreover, the concentration for 50% growth inhibition (GI50) in [6] was 0.0279 µM (active); in assay [7] it was < 0.01 µM (active).
As for `O=[N+]([O-])c1ccc(C2=NN(c3ccccc3)C[N+](c3ccc(Br)cc3)=N2)cc1`, the GI50 was > 100 µM (inactive) in [2]; > 100 µM (inactive) in [5]; > 100 µM (inactive) in assay [3]; 63.5 µM (inactive) in assay [4]; > 100 µM (inactive) in assay [6].
`CC1(CO)OC(n2cc(C(=O)NC(=O)OCc3ccccc3)c(=O)[nH]c2=O)CC1O` (stereo not given): the GI50 in assay [1], in assay [2], in assay [5], in assay [3], in [4] and in assay [9] was > 100 µM (inactive) each time. Moreover, the GI50 in assay [7] is > 100 µM (inactive).
In the case of `CC#CS(=O)(=O)c1ccccc1`, in assay [8], the GI50 was 8.45 µM (inactive).
With `COc1ccc2c3c([nH]c2c1[N+](=O)[O-])C(C)N(C(=O)/C=C/c1ccccc1)CC3` (stereo not given), the GI50 in assay [2] is 1.57 µM (inactive); in [3] it was 4.18 µM (inactive); in [4], 5.9 µM (inactive); in [6] it was 7.05 µM (inactive).
With `CN(C)c1ccc2c(c1)C(=O)N(OS(=O)(=O)c1ccc([N+](=O)[O-])cc1)C2=O`, the GI50 in [1] was > 10 µM (inactive); in [2], 19.9 µM (inactive); in assay [5] it was > 100 µM (inactive); in assay [4], 17.9 µM (inactive); in assay [9], 22.3 µM (inactive); in [6], 26.7 µM (inactive). In addition, the GI50 in assay [7] is 16.7 µM (inactive).
Take `CCc1nc(N)nc(N)c1-c1ccc([N+](=O)[O-])c(NCc2ccccc2)c1`: the GI50 in [8] is 16.9 µM (inactive).
`COc1ccc(NCc2cc(OC)c(OC)c(OC)c2)cc1`: the GI50 in assay [2] is 0.143 µM (active); in assay [3] it was 0.228 µM (active); in [4], 0.614 µM (active).
As for `O=c1cc(-c2ccccc2)oc2ccc(Cl)cc12` [6-CHLOROFLAVONE], the GI50 in assay [8] is > 100 µM (inactive); in [1] it was 49.9 µM (inactive); in assay [2], 72.9 µM (inactive); in assay [5] it was > 100 µM (inactive); in [3], > 100 µM (inactive); in [4] it was > 100 µM (inactive). Moreover, the GI50 was 48.2 µM (inactive) in [6] and 37.2 µM (inactive) in assay [7].
In the case of `CC(=O)OC(C)(C)/C=C/C(=O)[C@](C)(O)[C@H]1[C@H](O)C[C@@]2(C)[C@@H]3CC=C4[C@@H](C[C@H](O)C(=O)C4(C)C)[C@]3(CO)C(=O)C[C@]12C` [CUCURBITACIN A], the 50% growth inhibitory concentration (GI50) in assay [1] was 0.483 µM (active); in assay [2] it was 0.149 µM (active); in assay [5], 0.148 µM (active); in [3], 0.303 µM (active); in [4], 0.34 µM (active); in assay [6] it was 0.33 µM (active). The GI50 in [7] was 0.374 µM (active).
As to `O=NN(CCCl)C(=O)NC1CCCCC1` [LOMUSTINE], the GI50 is 8.24 µM (inactive) in assay [8]; 45.8 µM (inactive) in assay [1]; 48.1 µM (inactive) in assay [2]; 31.6 µM (inactive) in assay [5]; 60.3 µM (inactive) in assay [3]; 47.4 µM (inactive) in assay [4]. Also, the values for the GI50 in [9] and in assay [7] were 47.8 µM (inactive) and 64.9 µM (inactive), respectively.

What is called GI50 is the concentration at which growth is held to half of that of the control.
